Assay results reported in patent US20220411811A1, “SYNTHETIC TOOLKIT FOR PLANT TRANSFORMATION” (priority 2021, published 2022).

Tested on: A. tumefaciens NTL4
Assay type: cell-based, Agrobacterium tumefaciens
Conditions: for highest expression level (green fluorescence intensity, sfgfp reporter): highest induction concentration 10^3 μM; for basal expression level (green fluorescence intensity, sfgfp reporter): lowest induction concentration 10^−3 μM
Method: GFP measurement. An inoculum of A. tumefaciens was grown overnight to stationary phase and then transferred to fresh media at a 1:100 dilution. The new inocula were added with inducers to a final concentration of 1×10^−3 to 1×10^3 μmol/ml when their optical density at 600 nm (OD600) reached 0.5. After 6 h of incubation, cells were collected and resuspended in 1×PBS buffer. Then 100 μL of suitably diluted cultures were added into 96-well microtiter plates. OD600 and relative green fluorescence were measured by a BioTek® microplate reader H1. Congo red plate assay. The dye was dissolved in ddH2O at 20 mg ml^−1 and passed through 0.2 μm filters immediately. Four ml of filtered Congo Red was added per L (final concentration: 80 μg/ml) to generate LB-CR agar medium. The overnight cultured cultures were diluted to an OD600 of 1.0. 10 μl cultures were plated on LB-CR agar with appropriate antibiotics, followed by incubation at 30° C. for 24 hours.
A reliable induction system is required to achieve precise control of gene expression. […] An ori from the broad host-range plasmid pBBR1, which propagates in both E. coli and A. tumefaciens, was utilized for the origin of replication (Szpirer et al., J Bacteriol. 183:2101-2110, 2001). To evaluate the performance of these inducible systems, a green fluorescence protein gene (sfgfp) was utilized as a reporter gene, and placed under the control of the corresponding inducible promoters, Ptac, Pcym, Pvan, PBAD, Pug and Psal, respectively. The repressor genes of the inducible systems (lacI, cymR, vanR, araE, ttgR and nahR) were driven by a common constitutive promoter (Pcon). The resulting inducible “expression circuits” were transformed into A. tumefaciens NTL4.
To evaluate these induction systems, green fluorescence intensities of cells transformed with the plasmids were measured at various concentrations of inducers, ranging from 10^−3 to 10^3 μM.

Row | SMILES | highest expression level (green fluorescence intensity, sfgfp reporter) | basal expression level (green fluorescence intensity, sfgfp reporter)
1 | O=C[C@@H](O)[C@H](O)[C@H](O)CO [Ara, arabinose] | 1.8×10^3 | 5.5×10^2
2 | CC(C)c1ccc(C(=O)O)cc1 [Cum, cumic acid] | 3×10^4 | 1.4×10^2
3 | CC(C)S[C@@H]1O[C@H](CO)[C@H](O)[C@H](O)[C@H]1O [IPTG, β-d-1-thiogalactopyranoside] | 5.2×10^5 | 6.6×10^4
4 | O=C1C[C@@H](c2ccc(O)cc2)Oc2cc(O)cc(O)c21 [Nar, naringenin] | 1.2×10^4 | 1.8×10^2
5 | COc1cc(C(=O)O)ccc1O [Van, vanillic acid] | 7.7×10^4 | 3.1×10^2
